Measurements as given in patent US20230277569A1, “Compositions and Methods for Treating, Ameliorating and/or Preventing Cancer and Kits for the Same” (priority 2022, published 2023).
“And” between values parts separate entries of the source, which are not always exact repeats. Identical values can stand only once. Like-named read-outs stand apart in the source and are kept apart here.

Legend:
[1] = tested on: colon adenocarcinoma cell lines; conditions: colon adenocarcinoma lines of NCI 60 screen; read-out: IC50 anticancer activity; cited from earlier work
Human Kv1.5 = Human Kv1.5 (Homo sapiens, UniProt P22460); assay: Ion channel screening, Kv1.5; format: cell-based; conditions: n=15, read-out: inhibition of Kv1.5 currents
Description: (§1) The parameters measured were the maximum inward current evoked on stepping to −20 mV from the 1st and 26th pulse. Human Kv4.3/KChIP2 currents were evoked from a holding potential of −80 mV by a series of four 500 msec pulses to 0 mV using a 1000 msec interval between pulses. The parameter measured was the amplitude of the outward current 50 msec after the onset of the 4th voltage step to 0 mV. Human Cav1.2 currents were evoked by 2 pulses to −10 mV from a holding potential of −100 mV. The parameters measured were the maximum inward currents evoked on stepping to −10 mV from the holding potential of −100 mV for the 1st and 2nd pulse. Human Kv1.5 currents were evoked by a single pulse from a holding potential of −80 mV to a potential of 0 mV for 4 sec before returning to −80 mV. The parameters measured were the maximum amplitude of outward currents evoked at the beginning of the voltage pulse and at the end of the voltage step from −80 mV to 0 mV. Human KCNQ1/minK currents were evoked by a single pulse delivered from a holding potential of −80 mV to +60 mV for 4 sec before returning to −80 mV. The parameter measured was the maximum outward current evoked on stepping to +60 mV from the holding potential of −80 mV. hERG currents were evoked by a three-pulse protocol where voltage was first stepped to +40 mV for two sec from a holding potential of −80 mV to inactivate hERG channels. […]

melanoma cell lines = conditions: melanoma lines of NCI 60 screen; read-out: IC50 anticancer activity; cited from earlier work
CYP2C8 = CYP2C8 (Homo sapiens, UniProt P10632); assay: CYP inhibition in liver microsomes, CYP2C8; format: in vitro ADME; conditions: human liver microsomes 0.1 mg/mL
Protocol: (§2) After addition of prototypical CYP substrates in 250 μL, samples were incubated for 10 min (CYP1A2, CYP2B6, CYP2C9, and CYP3A4) or 20 min (CYP2C8) at 37° C. in 5% CO2. […] Samples were analyzed for metabolite formation by LC-MS/MS. The results were expressed using the peak area ratio of analyte to internal standard, based on the calibration curves.
(§3) where Range=fitted uninhibited value, s=slope factor, x=inhibitor concentration, y=% control activity.

tumor cells = conditions: in culture; read-out: IC50 tumor cell killing; cited from earlier work
CYP2A6 = CYP2A6 (Homo sapiens, UniProt P11509); assay: CYP inhibition in liver microsomes, CYP2A6; format: in vitro ADME; conditions: human liver microsomes 0.1 mg/mL
Protocol: as §2, §3

[2] = Phase I, cytochrome P450-mediated human liver microsome metabolism
[3] = Gamitrinib pharmacokinetics (PK) in rat plasma, single IV dose; format: in vivo, Sprague-Dawley rats; conditions: for 17-AG plasma concentration after IV Gamitrinib: Gamitrinib 5 mg/kg IV
Protocol: Sprague-Dawley rats (n=3) were administered a single intravenous (IV) dose of 1 mL Gamitrinib (5 mg/kg) formulated as described above without added microfluidization. Blood samples were collected via lateral tail vein using K2EDTA as an anticoagulant at 0.083, 0.25, 0.5, 1, 2, 4 and 24 h post-dose, chilled on ice and centrifuged at 5000 rpm for 10 min. Aliquots (0.2 mL) of each plasma sample were stored frozen at −20° C. For analysis, 50 μL aliquots of study samples were mixed with 50 μL of ACN/H2O (50:50), extracted by protein precipitation using ACN containing the internal standard Gamitrinib-d15 (100 ng/mL), and aliquots of supernatant were mixed with deionized water for Gamitrinib determination. Batch samples under analysis included a calibration curve, a matrix blank (blank rat plasma), a reagent blank, a control zero (blank rat plasma spiked with internal standard), and duplicate QC samples at 3 concentration levels (low, medium, and high) in addition to the study samples. Within each batch, the study samples were bracketed by calibration standards or QC samples. The lowest calibration standard served to evaluate system suitability at the beginning of each batch. […] Overall, the concentration of Gamitrinib was measured in 21 rat plasma samples in 1 analytical batch using LC-MS/MS data acquisition on a Shimadzu Nexera LC system coupled with an AB Sciex Triple Quad 5500 mass spectrometer. Chromatograms were integrated using Analyst 1.6.2 software. A weighted (1/x^2, x=concentration) linear regression was used to generate the calibration curve for Gamitrinib. […] The mean, standard deviation, precision, accuracy, and assay variability were calculated using Microsoft Excel.

Cav1.2 = Cav1.2 (Homo sapiens, UniProt Q13936); assay: Ion channel screening, Cav1.2; format: cell-based; conditions: n=34, pulse 2, read-out: inhibition of Cav1.2 currents
Description: as §1

Human Kv4.3/KChIP2 = Human Kv4.3/KChIP2 (Homo sapiens, UniProt Q9UK17); assay: Ion channel screening, Kv4.3/KChIP2; format: cell-based; conditions: n=13, read-out: inhibition of Kv4.3/KChIP2 currents
Description: as §1

[4] = Plasma protein binding (rapid equilibrium dialysis); format: in vitro ADME, human; conditions: human, plasma, 4-h incubation, 37° C.
Protocol: (§4) Spiked plasma samples were prepared by adding 12 μL of each working solution into 1.2 mL of blank plasma to a final concentration of 2 μg/mL. Plasma protein binding incubations were performed in triplicate by adding 500 μL of PBS into each white chamber and 300 μL of spiked plasma into each red chamber of the RED device. The device was covered with a sealing tape and placed on an orbital shaker at a shaking speed of 100 rpm at 37° C. in 5% CO2. After a 4-h incubation, a 40 μL plasma sample was transferred from each red chamber to the wells of a 96-well plate containing 160 μL of PBS. A 160 μL PBS aliquot from each white chamber was transferred to the wells of the same plate containing 40 μL of blank plasma. After matching the matrix for all samples, 400 μL aliquots of stop solution were added to each well of the 96-well sample plate. […] A 100 μL aliquot of supernatant from each well was transferred to a new 96-well sample plate and further mixed with 100 μL of Milli-Q (ultrapure) water before analysis by liquid chromatography—tandem mass spectrometry (LC-MS/MS).

plasma proteins = assay: as above; format: in vitro ADME, human; conditions: 2 μg/mL, 4-h incubation, 37° C.
Protocol: as §4

KCNQ1/minK = KCNQ1/minK (Homo sapiens, UniProt P51787); assay: Ion channel screening, KCNQ1/minK; format: cell-based; conditions: n=16, read-out: inhibition of KCNQ1/mink currents
Description: as §1

NCI 60 cell lines = conditions: NCI 60 cell line screen; read-out: IC50 anticancer activity; cited from earlier work
CYP1A2 = CYP1A2 (Homo sapiens, UniProt P05177); assay: CYP inhibition in liver microsomes, CYP1A2; format: in vitro ADME; conditions: human liver microsomes 0.1 mg/mL
Protocol: as §2, §3

Nav1.5 = Nav1.5 (Homo sapiens, UniProt Q14524); assay: Ion channel screening, Nav1.5; format: cell-based; conditions: n=3, pulse 26, read-out: inhibition of Nav1.5 currents
Description: as §1

[5] = 5 mg/kg IV, individual animals Rat 1-3

Chain of Human Kv4.3/KChIP2 (Q9UK17 whole entry): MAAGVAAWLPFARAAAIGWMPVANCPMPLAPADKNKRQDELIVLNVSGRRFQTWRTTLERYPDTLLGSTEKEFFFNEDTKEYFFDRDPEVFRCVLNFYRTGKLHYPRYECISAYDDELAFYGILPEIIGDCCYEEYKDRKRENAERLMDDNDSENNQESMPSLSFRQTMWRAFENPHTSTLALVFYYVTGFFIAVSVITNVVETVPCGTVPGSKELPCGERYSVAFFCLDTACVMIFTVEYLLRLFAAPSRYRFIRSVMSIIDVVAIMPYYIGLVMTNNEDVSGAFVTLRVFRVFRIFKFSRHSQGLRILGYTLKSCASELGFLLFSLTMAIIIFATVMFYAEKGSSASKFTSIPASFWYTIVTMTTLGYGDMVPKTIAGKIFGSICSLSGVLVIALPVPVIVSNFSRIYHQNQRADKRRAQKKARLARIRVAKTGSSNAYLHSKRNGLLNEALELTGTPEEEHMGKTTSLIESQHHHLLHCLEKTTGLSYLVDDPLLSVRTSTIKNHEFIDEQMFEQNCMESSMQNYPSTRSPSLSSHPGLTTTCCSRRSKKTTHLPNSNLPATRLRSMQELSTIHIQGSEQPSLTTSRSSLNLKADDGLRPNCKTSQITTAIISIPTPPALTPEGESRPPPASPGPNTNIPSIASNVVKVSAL
Chain of Human Kv4.3/KChIP2 (Q9NS61 whole entry partner): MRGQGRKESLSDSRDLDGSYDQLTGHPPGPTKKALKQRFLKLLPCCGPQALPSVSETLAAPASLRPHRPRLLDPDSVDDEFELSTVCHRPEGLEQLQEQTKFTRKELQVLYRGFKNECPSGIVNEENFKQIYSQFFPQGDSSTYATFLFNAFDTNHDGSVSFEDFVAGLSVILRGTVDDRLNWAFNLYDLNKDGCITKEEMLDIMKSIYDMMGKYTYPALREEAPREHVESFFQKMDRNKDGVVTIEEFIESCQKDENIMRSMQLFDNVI
Chain of CYP1A2 (P05177 whole entry): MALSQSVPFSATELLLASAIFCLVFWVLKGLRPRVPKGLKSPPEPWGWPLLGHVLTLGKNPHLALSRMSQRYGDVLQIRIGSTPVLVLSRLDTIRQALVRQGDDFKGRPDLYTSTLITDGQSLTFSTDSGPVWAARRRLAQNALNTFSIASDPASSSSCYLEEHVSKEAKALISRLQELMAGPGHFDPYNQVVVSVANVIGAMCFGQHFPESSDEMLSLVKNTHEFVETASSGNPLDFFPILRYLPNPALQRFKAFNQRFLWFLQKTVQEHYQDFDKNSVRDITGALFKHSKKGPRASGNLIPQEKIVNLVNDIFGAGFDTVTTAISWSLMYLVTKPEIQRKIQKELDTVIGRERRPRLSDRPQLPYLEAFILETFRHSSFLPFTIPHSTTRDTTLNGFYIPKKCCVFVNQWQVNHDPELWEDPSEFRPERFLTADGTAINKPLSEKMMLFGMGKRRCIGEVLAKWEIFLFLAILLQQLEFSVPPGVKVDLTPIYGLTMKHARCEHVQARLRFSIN
Chain of Human Kv1.5 (P22460 whole entry): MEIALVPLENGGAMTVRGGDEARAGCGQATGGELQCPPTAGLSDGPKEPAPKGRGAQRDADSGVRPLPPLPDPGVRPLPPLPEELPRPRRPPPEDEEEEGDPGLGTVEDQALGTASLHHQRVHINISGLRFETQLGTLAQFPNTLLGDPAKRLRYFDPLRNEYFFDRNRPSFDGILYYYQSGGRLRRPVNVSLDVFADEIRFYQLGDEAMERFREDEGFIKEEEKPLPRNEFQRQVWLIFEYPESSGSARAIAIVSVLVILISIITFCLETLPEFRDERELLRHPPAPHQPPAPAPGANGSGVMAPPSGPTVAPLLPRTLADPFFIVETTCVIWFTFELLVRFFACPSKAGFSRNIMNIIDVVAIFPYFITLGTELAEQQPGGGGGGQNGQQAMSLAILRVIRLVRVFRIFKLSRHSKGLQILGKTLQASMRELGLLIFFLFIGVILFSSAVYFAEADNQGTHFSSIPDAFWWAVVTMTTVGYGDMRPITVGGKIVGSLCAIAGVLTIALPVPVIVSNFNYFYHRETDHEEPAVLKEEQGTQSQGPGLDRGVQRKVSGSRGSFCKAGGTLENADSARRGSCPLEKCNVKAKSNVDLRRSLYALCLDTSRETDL
Chain of Nav1.5 (Q14524 whole entry): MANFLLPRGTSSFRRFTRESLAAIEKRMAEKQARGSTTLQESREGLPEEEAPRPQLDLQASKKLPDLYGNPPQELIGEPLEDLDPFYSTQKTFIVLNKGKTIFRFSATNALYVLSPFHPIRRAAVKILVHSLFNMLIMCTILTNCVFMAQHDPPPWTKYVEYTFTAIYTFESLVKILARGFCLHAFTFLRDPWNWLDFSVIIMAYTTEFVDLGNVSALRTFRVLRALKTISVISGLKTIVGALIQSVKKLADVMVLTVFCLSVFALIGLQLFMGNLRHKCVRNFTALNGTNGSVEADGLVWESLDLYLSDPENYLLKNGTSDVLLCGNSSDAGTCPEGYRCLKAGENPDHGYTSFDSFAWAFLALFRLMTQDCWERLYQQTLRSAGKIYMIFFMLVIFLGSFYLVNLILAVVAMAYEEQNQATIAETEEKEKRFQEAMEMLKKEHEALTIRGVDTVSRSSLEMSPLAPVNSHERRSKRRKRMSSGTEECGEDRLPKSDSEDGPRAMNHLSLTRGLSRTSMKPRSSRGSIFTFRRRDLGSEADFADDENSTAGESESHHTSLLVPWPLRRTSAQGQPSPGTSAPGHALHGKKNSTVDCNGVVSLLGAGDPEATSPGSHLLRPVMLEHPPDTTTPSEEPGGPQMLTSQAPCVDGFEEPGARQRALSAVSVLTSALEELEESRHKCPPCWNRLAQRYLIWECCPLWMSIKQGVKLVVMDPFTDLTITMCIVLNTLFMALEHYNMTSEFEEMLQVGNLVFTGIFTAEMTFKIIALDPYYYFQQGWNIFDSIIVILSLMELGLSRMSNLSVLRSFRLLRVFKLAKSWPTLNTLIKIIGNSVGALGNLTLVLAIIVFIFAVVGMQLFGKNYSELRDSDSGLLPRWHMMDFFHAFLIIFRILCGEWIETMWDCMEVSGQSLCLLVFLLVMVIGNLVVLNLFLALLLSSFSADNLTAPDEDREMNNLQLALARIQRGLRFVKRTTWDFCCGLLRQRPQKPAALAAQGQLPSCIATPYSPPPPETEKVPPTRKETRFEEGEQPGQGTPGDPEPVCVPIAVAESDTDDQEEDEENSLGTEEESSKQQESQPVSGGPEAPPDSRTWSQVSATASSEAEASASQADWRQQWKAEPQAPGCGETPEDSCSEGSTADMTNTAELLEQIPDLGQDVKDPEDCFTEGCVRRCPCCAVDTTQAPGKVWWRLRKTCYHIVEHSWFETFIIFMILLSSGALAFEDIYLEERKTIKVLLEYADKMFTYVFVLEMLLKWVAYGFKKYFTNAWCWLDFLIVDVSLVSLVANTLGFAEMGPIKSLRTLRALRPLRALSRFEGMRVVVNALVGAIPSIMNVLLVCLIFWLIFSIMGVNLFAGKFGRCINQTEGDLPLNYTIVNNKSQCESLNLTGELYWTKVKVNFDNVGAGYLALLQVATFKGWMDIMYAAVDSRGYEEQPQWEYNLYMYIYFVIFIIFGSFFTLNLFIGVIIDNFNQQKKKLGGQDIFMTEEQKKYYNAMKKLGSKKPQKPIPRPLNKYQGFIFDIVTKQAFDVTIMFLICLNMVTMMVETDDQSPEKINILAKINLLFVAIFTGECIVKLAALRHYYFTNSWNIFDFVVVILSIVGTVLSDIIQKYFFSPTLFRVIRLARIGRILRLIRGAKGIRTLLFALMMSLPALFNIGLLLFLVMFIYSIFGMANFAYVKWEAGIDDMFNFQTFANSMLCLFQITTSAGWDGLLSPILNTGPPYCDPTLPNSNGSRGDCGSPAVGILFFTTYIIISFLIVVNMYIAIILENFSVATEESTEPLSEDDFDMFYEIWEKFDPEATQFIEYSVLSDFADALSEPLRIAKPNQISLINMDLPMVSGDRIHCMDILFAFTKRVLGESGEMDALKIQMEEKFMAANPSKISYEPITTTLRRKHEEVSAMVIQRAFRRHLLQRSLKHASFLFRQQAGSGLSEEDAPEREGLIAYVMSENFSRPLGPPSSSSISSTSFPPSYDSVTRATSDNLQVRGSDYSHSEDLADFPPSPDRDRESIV
Chain of CYP2C8 (P10632 whole entry): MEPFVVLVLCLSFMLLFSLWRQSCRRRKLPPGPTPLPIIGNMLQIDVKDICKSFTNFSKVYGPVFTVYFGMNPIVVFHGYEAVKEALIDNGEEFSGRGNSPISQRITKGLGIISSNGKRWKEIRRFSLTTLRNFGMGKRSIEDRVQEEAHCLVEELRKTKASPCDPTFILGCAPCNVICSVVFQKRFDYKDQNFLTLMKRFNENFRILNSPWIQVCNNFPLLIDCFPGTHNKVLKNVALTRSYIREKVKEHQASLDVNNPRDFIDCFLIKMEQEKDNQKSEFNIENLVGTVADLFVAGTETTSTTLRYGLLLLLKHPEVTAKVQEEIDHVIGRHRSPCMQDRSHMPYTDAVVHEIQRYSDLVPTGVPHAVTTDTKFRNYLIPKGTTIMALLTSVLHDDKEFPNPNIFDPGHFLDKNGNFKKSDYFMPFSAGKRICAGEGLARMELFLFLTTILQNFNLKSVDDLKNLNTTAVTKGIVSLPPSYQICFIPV
Chain of CYP2A6 (P11509 whole entry): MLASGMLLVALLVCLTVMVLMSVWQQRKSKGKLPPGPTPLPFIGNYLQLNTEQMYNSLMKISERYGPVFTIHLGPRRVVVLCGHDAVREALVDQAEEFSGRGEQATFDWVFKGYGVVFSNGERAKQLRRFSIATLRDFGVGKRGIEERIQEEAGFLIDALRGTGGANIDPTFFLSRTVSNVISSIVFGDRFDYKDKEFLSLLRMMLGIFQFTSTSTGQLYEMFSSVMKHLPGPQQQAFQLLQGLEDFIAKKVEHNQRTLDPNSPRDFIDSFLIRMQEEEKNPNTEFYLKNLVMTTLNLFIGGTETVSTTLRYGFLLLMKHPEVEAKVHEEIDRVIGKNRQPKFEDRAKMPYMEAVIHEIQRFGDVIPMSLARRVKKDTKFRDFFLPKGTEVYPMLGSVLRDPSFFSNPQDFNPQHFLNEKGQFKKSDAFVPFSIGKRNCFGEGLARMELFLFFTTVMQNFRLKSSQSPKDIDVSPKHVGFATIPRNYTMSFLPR

SMILES: CO[C@H]1/C=C\C=C(/C)C(=O)NC2=CC(=O)C(NCCCCCC[P+](c3ccccc3)(c3ccccc3)c3ccccc3)=C(C[C@@H](C)C[C@H](OC)[C@H](O)[C@@H](C)/C=C(\C)[C@@H]1OC(N)=O)C2=O [Gamitrinib, 17-Demethoxy-17-((6-(triphenylphosphonio)hexyl)amino)geldanamycin]
- IC50 [1]: 0.35 to 29 µM
- inhibition at 10 µM (Human Kv1.5): 6.6 ± 1.3%
- IC50 (melanoma cell lines): 0.36 to 2.7 µM
- IC50 (CYP2C8): 8 µM
- IC50 (tumor cells): 1 to 4 µM
- IC50 (CYP2A6): 24 µM
- elimination rate constant (k) ([2]; 0.5 μM, human liver microsomes): 0.041
- intrinsic clearance (CLint) ([2]; 0.5 μM, human liver microsomes): 3.30 mL/min/g
- half-life at 0.5 μM ([2]; human, liver microsomes): 0.278 h
- t1/2 ([3]; 5 mg/kg IV, Sprague-Dawley rats, individual animals Rat 1-3): 11.107 h and 14.022 h
- t1/2 (terminal phase half-life) ([3]; 5 mg/kg IV, Sprague-Dawley rats, mean, n=3): 12.25 ± 1.55 h
- Gamitrinib plasma concentration ([3]; 5 mg/kg IV, 5 min, animals 1-3): 674.432 ng/mL and 622.199 ng/mL
- Gamitrinib plasma concentration ([3]; 5 mg/kg IV, 15 min, animals 1-3): 128.663 ng/mL and 180.951 ng/mL
- Gamitrinib plasma concentration ([3]; 5 mg/kg IV, 30 min, animals 1-3): 67.204 ng/mL and 106.381 ng/mL
- Gamitrinib plasma concentration ([3]; 5 mg/kg IV, 60 min, animals 1-3): 65.903 ng/mL and 55.991 ng/mL
- Gamitrinib plasma concentration ([3]; 5 mg/kg IV, 120 min, animals 1-3): 43.125 ng/mL and 29.914 ng/mL
- Gamitrinib plasma concentration ([3]; 5 mg/kg IV, 240 min, animals 1-3): 34.776 ng/mL and 28.905 ng/mL
- Gamitrinib plasma concentration ([3]; 5 mg/kg IV, 1440 min, animals 1-3): 10.511 ng/mL and 10.365 ng/mL
- AUCINF [3, 5]: 957.472 ng·h/mL and 918.784 ng·h/mL
- AUClast [3, 5]: 789.045 ng·h/mL and 709.112 ng·h/mL
- CL [3, 5]: 87.035 mL/min/kg and 90.700 mL/min/kg
- Cmax [3, 5]: 829.668 ng/mL and 1544.041 ng/mL
- MRT [3, 5]: 5.411 h and 5.524 h
- Vss [3, 5]: 60.052 L/kg and 78.131 L/kg
- Vz [3, 5]: 83.678 L/kg and 110.085 L/kg
- AUClast (AUC0-t) ([3]; 5 mg/kg IV, mean, n=3): 783.199 ng·h/mL
- CL (clearance) ([3]; 5 mg/kg IV, mean, n=3): 85.656 ± 5.856 mL/min/kg and 85.65 ± 5.85 mL/min/kg
- 17-AG plasma concentration after IV Gamitrinib ([3]; 30 min, animals 1-3): BLOQ
- 17-AG plasma concentration after IV Gamitrinib ([3]; 60 min, animals 1-3): BLOQ
- 17-AG plasma concentration after IV Gamitrinib ([3]; 120 min, animals 1-3): BLOQ
- 17-AG plasma concentration after IV Gamitrinib ([3]; 240 min, animals 1-3): BLOQ
- 17-AG plasma concentration after IV Gamitrinib ([3]; 1440 min, animals 1-3): BLOQ
- concentration at 5 min ([3]; Sprague-Dawley, rat, plasma, intravenous, 5 mg/kg, 5 mg/kg IV, 5 min, animals 1-3): 526 ng/mL
- concentration at 15 min ([3]; Sprague-Dawley, rat, plasma, intravenous, 5 mg/kg, 5 mg/kg IV, 15 min, animals 1-3): 212 ng/mL
- concentration at 30 min ([3]; Sprague-Dawley, rat, plasma, intravenous, 5 mg/kg, 5 mg/kg IV, 30 min, animals 1-3): 114 ng/mL
- concentration at 60 min ([3]; Sprague-Dawley, rat, plasma, intravenous, 5 mg/kg, 5 mg/kg IV, 60 min, animals 1-3): 71.4 ng/mL
- concentration at 120 min ([3]; Sprague-Dawley, rat, plasma, intravenous, 5 mg/kg, 5 mg/kg IV, 120 min, animals 1-3): 46.7 ng/mL
- concentration at 240 min ([3]; Sprague-Dawley, rat, plasma, intravenous, 5 mg/kg, 5 mg/kg IV, 240 min, animals 1-3): 36.8 ng/mL
- concentration at 1440 min ([3]; Sprague-Dawley, rat, plasma, intravenous, 5 mg/kg, 5 mg/kg IV, 1440 min, animals 1-3): 11.9 ng/mL
- half-life ([3]; Sprague-Dawley, rat, plasma, iv, 5 mg/kg, 5 mg/kg IV, Sprague-Dawley rats, individual animals Rat 1-3, read-out: t1/2 (converted)): 11.6 h
- half-life ([3]; Sprague-Dawley, rat, plasma, iv, 5 mg/kg, 5 mg/kg IV, Sprague-Dawley rats, mean, n=3, read-out: t1/2 (terminal phase half-life) (converted)): 12.2 ± 1.55 h
- AUC(0-inf) ([3]; Sprague-Dawley, rat, plasma, iv, 5 mg/kg, 5 mg/kg IV, individual animals Rat 1-3): 1050 ng·h/mL
- AUC(0-t) ([3]; Sprague-Dawley, rat, plasma, iv, 5 mg/kg, 5 mg/kg IV, individual animals Rat 1-3, read-out: AUClast): 851 ng·h/mL
- clearance ([3]; Sprague-Dawley, rat, plasma, iv, 5 mg/kg, 5 mg/kg IV, individual animals Rat 1-3, read-out: CL): 79.2 mL/min/kg
- Cmax ([3]; Sprague-Dawley, rat, plasma, iv, 5 mg/kg, 5 mg/kg IV, individual animals Rat 1-3, read-out: Cmax): 1150 ng/mL
- MRT ([3]; Sprague-Dawley, rat, plasma, iv, 5 mg/kg, 5 mg/kg IV, individual animals Rat 1-3, read-out: MRT): 5.54 h
- Vd ([3]; Sprague-Dawley, rat, plasma, iv, 5 mg/kg, 5 mg/kg IV, individual animals Rat 1-3, read-out: Vss): 58.2 L/kg
- Vd ([3]; Sprague-Dawley, rat, plasma, iv, 5 mg/kg, 5 mg/kg IV, individual animals Rat 1-3, read-out: Vz): 79.7 L/kg
- AUC(0-inf) ([3]; Sprague-Dawley, rat, plasma, iv, 5 mg/kg, 5 mg/kg IV, mean, n=3): 976 ng·h/mL
- AUC(0-t) ([3]; Sprague-Dawley, rat, plasma, iv, 5 mg/kg, 5 mg/kg IV, mean, n=3, read-out: AUClast (AUC0-t)): 783 ± 71.3 ng·h/mL
- clearance ([3]; Sprague-Dawley, rat, plasma, iv, 5 mg/kg, 5 mg/kg IV, mean, n=3, read-out: CL (clearance)): 85.6 ± 5.8 mL/min/kg
- Cmax ([3]; Sprague-Dawley, rat, plasma, iv, 5 mg/kg, 5 mg/kg IV, mean, n=3, read-out: Cmax): 1180 ng/mL
- MRT ([3]; Sprague-Dawley, rat, plasma, iv, 5 mg/kg, 5 mg/kg IV, mean, n=3, read-out: MRT): 5.49 h
- Vd ([3]; Sprague-Dawley, rat, plasma, iv, 5 mg/kg, 5 mg/kg IV, mean, n=3, read-out: Vss): 65.5 L/kg
- Vd ([3]; Sprague-Dawley, rat, plasma, iv, 5 mg/kg, 5 mg/kg IV, mean, n=3, read-out: Vz): 91.2 L/kg
- generation of 17-AG by Gamitrinib metabolism in rats ([3]; in words): did not generate detectable levels
- inhibition at 10 µM (Cav1.2): 12.2 ± 1.5%
- inhibition at 10 µM (Human Kv4.3/KChIP2): 6.8 ± 2.2%
- fraction unbound at 4 h, 2 μg/mL ([4]; read-out: average free fraction): 0.007 ± 0.0007
- fraction unbound at 4 h, 2 μg/mL ([4]; read-out: bound to plasma proteins): < 0.01
- bound to plasma proteins (plasma proteins): 99.3±0.07%
- inhibition at 10 µM (KCNQ1/minK): 22.5 ± 1.1%
- IC50 (NCI 60 cell lines): 0.16 to 29 µM
- IC50 (CYP1A2): 32.9 µM
- inhibition at 10 µM (Nav1.5): 22.3 ± 5.3%
